According to ChEMBL document CHEMBL1201862, “PubChem BioAssay data set” (2004):
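Following 48 hours of exposure in 96-well plates, responses at five concentrations were used to interpolate endpoints linearly. GI50 = concentration required for 50% inhibition of growth.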 Active and inactive are the calls of the source. No stated cut-off is given here; in the data, active = GI50 up to about 1.1 µM and inactive = higher. Square brackets hold non-standard residues; d marks the D form. Peptide text beside a SMILES is read from it. * marks the point of attachment. X26 = COC1=CC(=O)N(C(=O)[C@@H](O*)C(C)C)[C@H]1Cc1ccccc1; NMeV = CN[C@H](C(=O)O)C(C)C; Hexanoyl = CCCCCC(=O)*

Columns and labels:
Assay in all cases: growth of human tumour cells (NCI), 48 h
HOP-18 = tested on: HOP-18
DMS-273 = tested on: DMS-273
DMS-114 = tested on: DMS-114
XF498 = tested on: XF498
LXFL 529 = tested on: LXFL 529
M19-MEL = tested on: M19-MEL
DLD-1 = tested on: DLD-1
BT-549 = tested on: BT-549
RXF 631 = tested on: RXF 631

## Cc1ccc(NC(=O)C(=O)CC(=O)c2ccccc2)cc1C
HOP-18
  GI50: > 100 µM (inactive)
DMS-273
  GI50: 56.8 µM (inactive)
DMS-114
  GI50: 86.9 µM (inactive)
XF498
  GI50: > 100 µM (inactive)
LXFL 529
  GI50: 76.9 µM (inactive)
M19-MEL
  GI50: > 100 µM (inactive)
DLD-1
  GI50: > 100 µM (inactive)

## O=C(COc1ccc(OCC(=O)N2C(=O)CC/C2=N\c2ccc(Cl)cc2)cc1)N1C(=O)CS/C1=N\c1ccc(Cl)cc1
BT-549
  GI50: 57.4 µM (inactive)

## C=CCN1C[C@H](C)N([C@@H](c2ccc(C(=O)N3CCCCC3)cc2)c2cccc(OC)c2)C[C@H]1C
BT-549
  GI50: 32.9 µM (inactive)

## CCOC(=O)c1cn2c(n1)sc1c(Cl)c(Cl)ccc12
BT-549
  GI50: 33 µM (inactive)

## CCCCCC(=O)N[C@H](C(=O)N[C@H](C(=O)N(C)[C@H](C(=O)N1CCC[C@H]1C(=O)N1CCC[C@H]1C(=O)O[C@H](C(=O)N1C(=O)C=C(OC)[C@@H]1Cc1ccccc1)C(C)C)C(C)C)C(C)C)C(C)C (Hexanoyl-VV[NMeV]PP-X26)
BT-549
  GI50: 59.8 µM (inactive)

## O=C1CCC(C(=O)O)C2=C1CCCC2 (centres undefined)
HOP-18
  GI50: > 100 µM (inactive)
DMS-273
  GI50: 17.1 µM (inactive)
DMS-114
  GI50: > 100 µM (inactive)
XF498
  GI50: > 100 µM (inactive)
LXFL 529
  GI50: > 100 µM (inactive)
M19-MEL
  GI50: > 100 µM (inactive)
DLD-1
  GI50: > 100 µM (inactive)
BT-549
  GI50: > 100 µM (inactive)

## COc1cccc2c(=O)oc(-c3ccccc3C)nc12
BT-549
  GI50: 21.5 µM (inactive)

## c1ccc(CCCCNCc2cc(CNCCCCc3ccccc3)cc(CNCCCCc3ccccc3)c2)cc1
BT-549
  GI50: 1.63 µM (inactive)

## O=C(/C=C/c1cccc(Br)c1)N1CCN(CCOC(c2ccccc2)c2ccccc2)CC1
BT-549
  GI50: 26.5 µM (inactive)

## CC(C)(C)C(=C[S+]([O-])/N=C/c1ccccc1)C(C)(C)C (centres undefined)
DMS-273
  GI50: 32.3 µM (inactive)
DMS-114
  GI50: 28.1 µM (inactive)
XF498
  GI50: 23 µM (inactive)
LXFL 529
  GI50: 28.4 µM (inactive)
RXF 631
  GI50: 38.6 µM (inactive)
M19-MEL
  GI50: 36.1 µM (inactive)
DLD-1
  GI50: 31 µM (inactive)

## CC(CC=O)Nc1nn2c(=O)c3ccccc3nc2s1 (centres undefined)
BT-549
  GI50: > 100 µM (inactive)

## Cc1cccc2sc(NC(=O)c3cc([N+](=O)[O-])ccc3Cl)nc12
BT-549
  GI50: 2.44 µM (inactive)

## COc1ccc(-c2cc(=O)c3cc(O)ccc3o2)c(OC)c1OC
DMS-114
  GI50: 27.9 µM (inactive)
XF498
  GI50: 30.5 µM (inactive)
LXFL 529
  GI50: 30.6 µM (inactive)
RXF 631
  GI50: 33.2 µM (inactive)
M19-MEL
  GI50: 45.3 µM (inactive)
DLD-1
  GI50: 36.4 µM (inactive)

## C=CN1CCN(c2ccccc2)P1(=O)Oc1ccccc1 (centres undefined)
BT-549
  GI50: > 100 µM (inactive)

## CC(C)OP(=O)(OC(C)C)/C(=N/Nc1ccc([N+](=O)[O-])cc1)Nc1ccccc1
DMS-273
  GI50: 25.3 µM (inactive)
DMS-114
  GI50: 20.4 µM (inactive)
XF498
  GI50: 22.2 µM (inactive)
LXFL 529
  GI50: 19.5 µM (inactive)
M19-MEL
  GI50: 47.2 µM (inactive)
DLD-1
  GI50: 28.1 µM (inactive)

## COc1cc(/C=C/c2sc3ccccc3[n+]2C)ccc1N(C)C
BT-549
  GI50: 0.368 µM (active)

## Cc1ccc(-c2cc(N)n(-c3nc4c([nH]3)c(=O)n(C)c(=O)n4C)n2)cc1
BT-549
  GI50: 6.95 µM (inactive)

## O=C(NNCc1ccc(Cl)cc1)Nc1cccc2ccccc12
BT-549
  GI50: 97.1 µM (inactive)

## CC(=O)OCC1OC(NC(=S)Nn2c(-c3ccccc3)nc3ccccc3c2=O)C(OC(C)=O)C(OC(C)=O)C1OC(C)=O (centres undefined)
BT-549
  GI50: > 100 µM (inactive)

## c1cc2ccc1C1NCCCN1CCN1CCCNC1c1ccc(cc1)C1NCCCN1CCN1CCCNC21 (centres undefined)
HOP-18
  GI50: > 100 µM (inactive)
DMS-273
  GI50: > 100 µM (inactive)
DMS-114
  GI50: > 100 µM (inactive)
XF498
  GI50: > 100 µM (inactive)
LXFL 529
  GI50: 78.7 µM (inactive)
M19-MEL
  GI50: 95.7 µM (inactive)
DLD-1
  GI50: > 100 µM (inactive)

## CC1=N[C@@](C)(C2CC3C=CC2C3=O)COC1=O (some centres undefined)
BT-549
  GI50: > 100 µM (inactive)

## CC(C)c1cc(C(C)C)c(S(=O)(=O)N=[N+]=[N-])c(C(C)C)c1
DMS-273
  GI50: 94 µM (inactive)
XF498
  GI50: > 100 µM (inactive)
LXFL 529
  GI50: > 100 µM (inactive)
RXF 631
  GI50: 59.8 µM (inactive)
M19-MEL
  GI50: 34.9 µM (inactive)
DLD-1
  GI50: > 100 µM (inactive)

## CC(=O)OCC1OC(OC2CC3C(C)(C)C(O)CC[C@]3(C)C3CCC45CC4(CCC5[C@@H](C)CC(O)C(O)C(C)(C)O)[C@]23C)C(O)C(O)C1O (some centres undefined)
BT-549
  GI50: > 10 µM (inactive)

## Cc1cnc2[nH]c(-c3ccccc3)cc(=O)c2c1
BT-549
  GI50: 0.0306 µM (active)

## COc1ccc(Nc2nc3ccc(C(F)(F)F)cc3nc2C(=O)O)cc1
BT-549
  GI50: 2.71 µM (inactive)

## O=C(NCCCCN(CCCNC(=O)C(F)(F)F)Cc1ccccc1)C(F)(F)F
BT-549
  GI50: > 100 µM (inactive)

## CC(C)c1cc2c(cc1S(=O)(=O)O)[C@@]1(C)CCC[C@@](C)(C(=O)O)C1CC2 (some centres undefined)
BT-549
  GI50: > 100 µM (inactive)

## COc1ccc2c(C)cc(N/N=C/c3ccc(C)s3)nc2c1
BT-549
  GI50: 24.3 µM (inactive)

## Nc1ccccc1N/C=C\C(=O)C(Cl)(Cl)Cl
BT-549
  GI50: 22.9 µM (inactive)

## CC1=CC(=O)N2C(OC[C@@H]2c2ccccc2)O1 (some centres undefined)
HOP-18
  GI50: 20.7 µM (inactive)
XF498
  GI50: > 100 µM (inactive)
LXFL 529
  GI50: > 100 µM (inactive)
M19-MEL
  GI50: > 100 µM (inactive)
DLD-1
  GI50: > 100 µM (inactive)

## CC1=NNC(=O)C1C1CC(c2c[nH]c3ccccc23)=NN(c2ccccc2)C1=O (centres undefined)
BT-549
  GI50: 86.1 µM (inactive)

## CC(N)/C(N)=N/O (centres undefined)
BT-549
  GI50: > 100 µM (inactive)

## CC1=NC2(C(=O)O)C3(C(=O)O)N=C(C)OC3(C(F)(F)F)C2(C(F)(F)F)O1 (centres undefined)
HOP-18
  GI50: > 100 µM (inactive)
DMS-273
  GI50: > 100 µM (inactive)
DMS-114
  GI50: > 100 µM (inactive)
XF498
  GI50: > 100 µM (inactive)
M19-MEL
  GI50: > 100 µM (inactive)
DLD-1
  GI50: > 100 µM (inactive)

## COc1cc(S(=O)(=O)N/N=C/c2cc(Br)c(O)c(OC)c2)c(OC)cc1NC(C)=O
BT-549
  GI50: > 100 µM (inactive)

## Cc1ccnc2nc(-c3ccc4ccccc4c3)cc(O)c12
BT-549
  GI50: 5.32 µM (inactive)
